Where two headings read alike, the source gives them in different places.
Experiments:
[1] = Effects of 7-day Ointment Rubbing on Organ Weights; type: in vivo, male Sprague-Dawley rats; conditions: Table 7, 7-day rubbing, 100 mg ointment once daily; for Leukocyte count: normal animal 0.0
Procedure: (§1) Ointment to be tested was prepared usign white soft paraffin as the base and containing dexamethasone at 0.1% concentration.
Groups of 5 male Sprague-Dawley rats each weighing 150-170 g were used. Under ether anesthesia, the dorsum of animals were closely clipped, and test drug (100 mg) was carefully rubbed in the clipped dorsal area for 30 seconds. Rats were slipped on plastic cang to prevent them from licking the drug-applied area. After the drug rubbing once daily for 7 days, on the 8th day rats were anesthetized with ether. Blood samples were collected, and thymus, spleen, and adrenal were excised and measured their wet weights. Furthermore, leukocyte number was counted with the blood samples collected. Results were expressed as the per cent of change of body weight on the 8th day as compared with that on the 1st day of rubbing. Similarly, the per cent of change in weights of thymus, spleen and adrenal on the 8th day as compared with that of the control animlas were shown.

granuloma = assay: Inhibitory Effects on Granuloma Growth (Paper Disk Method); type: in vivo, male Sprague-Dawley rats; conditions: ointment 0.1%, 50 mg once a day, 7 days; for change in vivo at 0.1 %, 50 mg: Rattus norvegicus, topical, 168 h
Procedure: as §1
Groups of 5 male Sprague-Dawley rats each weighing 150-170 g were used. Under ether anesthesia, the dorsum of animals was closely clipped, and medianly incised. After each one pre-weighed paper disk (8-mm diameter, 1-mm thick, weighing about 30 mg; Toyo-Roshi filter paper) was inserted subcutaneously into both sides of the dorsal incision, the incision was sutured. In order to prevent bacterial infection, penicillin G potassium salt (2,000 units) per rat was intramascularly injected after the surgery. Base or ointment to be tested (50 mg each) was rubbed carefully into the skin over the paper disk inserted site, for 30 seconds once a day for the duration of 7 days. Rats were slipped plastic cangs on to prevent them from licking the drug applied sites. On the 8th day of the test, rats were sacrificed under ether anesthesia, and granulomas were carefully excised. Granulomas were dried at 40° C. for 24 h, and their dry weights were recorded.
Inhibitory effects of dexamethasone derivatives on the weight increase of granuloma of experimental animals as compared with those of control animals are shown as per cent of inhibition ov er the control in Table 1. Figures wihth asterisks in the table indicate signfiicant difference. The same will be applied to the following other tables.

[2] = test system: croton oil-induced ear edema; assay: Inhibitory Effects on Croton oil-induced Ear Lobe Edema; type: in vivo, male ddY mice; conditions: Table 5, ointment 20 mg, mouse ear lobe
Procedure: as §1
Groups of 10 male ddY mice each weighing about 25 g were used. Ointment to be tested (20 mg) was rubbed in the right-side ear lobe, and, 30 min later, a drop of 4 % croton oil dissolved in either was applied to it. Thirty minute after that treatment, mice were sacrificed. Ear lobes on both sides were punched out in the size of 5-mm diameter, and weighed. Results were expressed by calculating the per cent of weight change of the right edema ear as compared with that of the untreated left ear, and compared with that of the control.

[3] = test system: croton oil-induced granuloma; assay: Croton Oil-induced Granuloma (granuloma pouch); type: in vivo, male Sprague-Dawley rats; conditions: Rattus norvegicus, 168 h, 7 days; for inhibition in vivo at 0.01 mg: 0.01 mg/rat; for inhibition in vivo at 0.1 mg: 0.1 mg/rat; for inhibition in vivo at 1 mg: 1.0 mg/rat
Procedure: Groups of 5 male Sprague-Dawley rats each weighing 160-180 g were used. Under ether anesthesia, the dorsum of animals was closely clipped, and air sac was formed by injecting air (20 ml) subcutaneously. Next day cotton seed oil containing 1% croton oil was injected into the air sac. Drugs to be tested were suspended in the cotton seed oil containing 1% croton oil, and administered. After 7 days, the blood was taken from the animal under ether anesthesia. Then, the granuloma pouch fluid (exudate) was collected, and the fluid volume was measured. The pouch wall formed around granuloma and thymus were also excised and weighed.

[4] = read-out: Weight of granuloma, per cent of change of the controls, rat, paper disk
[5] = rat, paper disk, read-out: Weight of granuloma, per cent of change of the controls
[6] = read-out: Effects on granuloma weight, per cent of inhibition over the control
[7] = read-out: Effects on pouch fluid (exudate) volume, per cent of inhibition over the control

Structure (SMILES): C[C@@H]1C[C@H]2[C@@H]3CCC4=CC(=O)C=C[C@]4(C)[C@@]3(F)[C@@H](O)C[C@]2(C)[C@@]1(O)C(=O)CO[C@@H]1O[C@H](CO)[C@@H](O)[C@H](O)[C@H]1O [Compound 5β, glucosyldexamethasone]
- Adrenal weight, per cent of change vs control animals [1]: -49.6 ± 3.2 per cent
- Body weight, per cent of change on the 8th day vs 1st day [1]: 0.7 ± 1.4 per cent
- Spleen weight, per cent of change vs control animals [1]: -56.0 ± 1.6 per cent
- Thymus weight, per cent of change vs control animals [1]: -85.7 ± 2.6 per cent
- Leukocyte count [1]: -46.6 ± 8.2
- change in vivo at 0.1 %, 50 mg (granuloma; [4]): -47.4 ± 2.9%

Structure (SMILES): C[C@@H]1C[C@H]2[C@@H]3CCC4=CC(=O)C=C[C@]4(C)[C@@]3(F)[C@@H](O)C[C@]2(C)[C@@]1(O)C(=O)CO[C@H]1O[C@H](CO)[C@H](O)[C@H](O)[C@H]1O [Compound 15α, galactosyldexamethasone]
- Adrenal weight, per cent of change vs control animals [1]: -48.3 ± 2.9 per cent
- Body weight, per cent of change on the 8th day vs 1st day [1]: 8.3 ± 1.0 per cent
- Spleen weight, per cent of change vs control animals [1]: -35.7 ± 2.3 per cent
- Thymus weight, per cent of change vs control animals [1]: -82.2 ± 3.3 per cent
- Leukocyte count [1]: -22.6 ± 7.4
- change in vivo at 0.1 %, 50 mg (granuloma; [4]): -39.5 ± 1.8%

Structure (SMILES): C[C@@H]1C[C@H]2[C@@H]3CCC4=CC(=O)C=C[C@]4(C)[C@@]3(F)[C@@H](O)C[C@]2(C)[C@@]1(O)C(=O)CO[C@@H]1O[C@H](CO)[C@H](O)[C@H](O)[C@H]1O [Compound 15β, galactosyldexamethasone]
- Adrenal weight, per cent of change vs control animals [1]: -47.1 ± 1.9 per cent
- Body weight, per cent of change on the 8th day vs 1st day [1]: 4.6 ± 0.9 per cent
- Spleen weight, per cent of change vs control animals [1]: -43.2 ± 2.1 per cent
- Thymus weight, per cent of change vs control animals [1]: -86.0 ± 1.4 per cent
- Leukocyte count [1]: -37.0 ± 6.9
- change in vivo at 0.1 %, 50 mg (granuloma; [4]): -41 ± 2.6%

Structure (SMILES): C[C@@H]1C[C@H]2[C@@H]3CCC4=CC(=O)C=C[C@]4(C)[C@@]3(F)[C@@H](O)C[C@]2(C)[C@@]1(O)C(=O)CO[C@H]1O[C@H](CO)[C@@H](O)[C@H](O)[C@@H]1O [Compound 25α, mannosyldexamethasone]
- Adrenal weight, per cent of change vs control animals [1]: -24.4 ± 3.4 per cent
- Body weight, per cent of change on the 8th day vs 1st day [1]: 16.1 ± 1.7 per cent
- Spleen weight, per cent of change vs control animals [1]: -18.2 ± 2.2 per cent
- Thymus weight, per cent of change vs control animals [1]: -32.6 ± 7.4 per cent
- Leukocyte count [1]: -0.7 ± 9.0
- change in vivo at 0.1 %, 50 mg (granuloma; [4]): -18 ± 4.8%

Structure (SMILES): CC(=O)OC[C@H]1O[C@H](OCC(=O)[C@@]2(O)[C@H](C)C[C@H]3[C@@H]4CCC5=CC(=O)C=C[C@]5(C)[C@@]4(F)[C@@H](O)C[C@@]32C)[C@@H](OC(C)=O)[C@@H](OC(C)=O)[C@@H]1OC(C)=O [Compound 29, mannosyldexamethasone (per Ac derivative)]
- Percent of inhibition of ear edema [2]: 22.1 ± 4.7%
- Weight of granuloma, per cent of change of the controls (granuloma; rat, paper disk): -35.7 ± 5.6 per cent

Structure (SMILES): CC(=O)N[C@H]1C(OCC(=O)[C@@]2(O)[C@H](C)C[C@H]3[C@@H]4CCC5=CC(=O)C=C[C@]5(C)[C@@]4(F)[C@@H](O)C[C@@]32C)O[C@H](CO)[C@H](O)[C@@H]1O (some centres unmarked) [Compound 44', N-acetylgalactosaminyldexamethasone]
- Percent of inhibition of ear edema ([2]; listed as 44'): 7.9 ± 7.2%
- Weight of granuloma, per cent of change of the controls (granuloma; rat, paper disk, listed as 44'): 3.3 ± 4.7 per cent

Structure (SMILES): COC(=O)[C@H]1O[C@@H](OCC(=O)[C@@]2(O)[C@H](C)C[C@H]3[C@@H]4CCC5=CC(=O)C=C[C@]5(C)[C@@]4(F)[C@@H](O)C[C@@]32C)[C@H](OC(C)=O)[C@@H](OC(C)=O)[C@@H]1OC(C)=O [Compound 54β]
- change in vivo at 0.1 %, 50 mg (granuloma; [5]): -35.1 ± 2.8%

Structure (SMILES): C[C@@H]1C[C@H]2[C@@H]3CCC4=CC(=O)C=C[C@]4(C)[C@@]3(F)[C@@H](O)C[C@]2(C)[C@@]1(O)C(=O)CO[C@@H]1O[C@H](C(=O)O)[C@@H](O)[C@H](O)[C@H]1O [Compound 55β, β-glucuronyldexamethasone]
- change in vivo at 0.1 %, 50 mg (granuloma; [5]): -37.4 ± 7.1%

Structure (SMILES): COC(=O)[C@H]1O[C@@H](OCC(=O)[C@@]2(O)[C@H](C)C[C@H]3[C@@H]4CCC5=CC(=O)C=C[C@]5(C)[C@@]4(F)[C@@H](O)C[C@@]32C)[C@H](OC(=O)c2ccc(C)cc2)[C@@H](OC(=O)c2ccc(C)cc2)[C@@H]1OC(=O)c1ccc(C)cc1 [Compound 59β]
- change in vivo at 0.1 %, 50 mg (granuloma; [5]): -7.7 ± 6.8%

Structure (SMILES): COC(=O)[C@H]1O[C@@H]2OC(C)(OCC(=O)[C@@]3(O)[C@H](C)C[C@H]4[C@@H]5CCC6=CC(=O)C=C[C@]6(C)[C@@]5(F)[C@@H](O)C[C@@]43C)O[C@@H]2[C@@H](OC(C)=O)[C@H]1OC(C)=O (some centres unmarked) [Compound 64']
- change in vivo at 0.1 %, 50 mg (granuloma; [5]): -41.3 ± 2.3%

Structure (SMILES): COC(=O)[C@H]1O[C@@H](OCC(=O)[C@@]2(O)[C@H](C)C[C@H]3[C@@H]4CCC5=CC(=O)C=C[C@]5(C)[C@@]4(F)[C@@H](O)C[C@@]32C)[C@H](OC(C)=O)[C@@H](OC(C)=O)[C@H]1OC(C)=O [Compound 64β]
- change in vivo at 0.1 %, 50 mg (granuloma; [5]): -32.5 ± 0.5%

Structure (SMILES): C[C@@H]1C[C@H]2[C@@H]3CCC4=CC(=O)C=C[C@]4(C)[C@@]3(F)[C@@H](O)C[C@]2(C)[C@@]1(O)C(=O)CO[C@@H]1O[C@H](C(=O)O)[C@H](O)[C@H](O)[C@H]1O [Compound 65β, β-galacturonyldexamethasone]
- change in vivo at 0.1 %, 50 mg (granuloma; [5]): -33 ± 3.3%

Structure (SMILES): COC(=O)[C@H]1O[C@@H](OCC(=O)[C@@]2(O)[C@H](C)C[C@H]3[C@@H]4CCC5=CC(=O)C=C[C@]5(C)[C@@]4(F)[C@@H](O)C[C@@]32C)[C@H](OC(=O)c2ccc(C)cc2)[C@@H](OC(=O)c2ccc(C)cc2)[C@H]1OC(=O)c1ccc(C)cc1 [Compound 69β]
- change in vivo at 0.1 %, 50 mg (granuloma; [5]): 0.7 ± 2.4%

Structure (SMILES): Cc1ccc(C(=O)OC[C@H]2O[C@@H](OCC(=O)[C@@]3(O)CC[C@H]4[C@@H]5C[C@H](F)C6=CC(=O)C=C[C@]6(C)[C@@]5(F)[C@@H](O)C[C@@]43C)[C@H](OC(=O)c3ccc(C)cc3)[C@@H](OC(=O)c3ccc(C)cc3)[C@@H]2OC(=O)c2ccc(C)cc2)cc1 [Compound 105β, glucosyldiflupredonate (p-toluoyl derivative)]
- inhibition in vivo at 0.01 mg [3, 6]: -5.9 ± 10.9%
- inhibition in vivo at 0.01 mg [3, 7]: -8.1 ± 9.4%
- inhibition in vivo at 0.1 mg [3, 6]: 22.1 ± 3.7%
- inhibition in vivo at 0.1 mg [3, 7]: 24.8 ± 8.8%
- inhibition in vivo at 1 mg [3, 6]: 53 ± 6.2%
- inhibition in vivo at 1 mg [3, 7]: 76.4 ± 4.3%
- change in vivo at 0.1 %, 50 mg (granuloma; [5]): -1.2 ± 5.7%

Structure (SMILES): Cc1ccc(C(=O)OC[C@H]2O[C@@H](OCC(=O)[C@@]3(O)[C@@H](C)C[C@H]4[C@@H]5C[C@H](F)C6=CC(=O)C=C[C@]6(C)[C@@]5(F)[C@@H](O)C[C@@]43C)[C@H](OC(=O)c3ccc(C)cc3)[C@@H](OC(=O)c3ccc(C)cc3)[C@@H]2OC(=O)c2ccc(C)cc2)cc1 [Compound 107β, glucosyldiflorasone (p-toluoyl derivative)]
- inhibition in vivo at 0.01 mg [3, 6]: -21.2 ± 19.2%
- inhibition in vivo at 0.01 mg [3, 7]: -28.5 ± 18.8%
- inhibition in vivo at 0.1 mg [3, 6]: -23.3 ± 21.4%
- inhibition in vivo at 0.1 mg [3, 7]: -30.9 ± 20.9%
- inhibition in vivo at 1 mg [3, 6]: 28.1 ± 12.5%
- inhibition in vivo at 1 mg [3, 7]: 28.8 ± 15.2%
- change in vivo at 0.1 %, 50 mg (granuloma; [5]): -6.3 ± 5.5%

Structure (SMILES): Cc1ccc(C(=O)OC[C@H]2O[C@@H](OCC(=O)[C@H]3[C@H](C)C[C@H]4[C@@H]5C[C@H](F)C6=CC(=O)C=C[C@]6(C)[C@@]5(F)[C@@H](O)C[C@@]43C)[C@H](OC(=O)c3ccc(C)cc3)[C@@H](OC(=O)c3ccc(C)cc3)[C@@H]2OC(=O)c2ccc(C)cc2)cc1 [Compound 109β, Glucosyldiflucortolone (p-toluoyl derivative)]
- change in vivo at 0.1 %, 50 mg (granuloma; [5]): -0.2 ± 3.7%

Source: patent US5945404A, “21-Substituted steroid compound” (priority 1993, dated 1999)
